What was measured:
E. coli (ATCC 25922) [1] = assay: Time-kill curve; format: cell-based; conditions: 1×MIC to 8×MIC, 0-24 hours
Description: Based on the MIC test results, the best performing active compounds were selected for time-kill curve studies.
(2) Sampling: At 0, 2, 4, 6, 8, 12, and 24 hours, aspirate 100 μL of the mixture
(3) Serial dilution and coating: Use 10 mM PBS buffer to dilute 10 times continuously, and evenly coat the diluted liquid on the agar plate
(4) Incubation and counting: Incubate in a 37° C. incubator for 24 hours and count the colonies.
(5) Sterilization curve drawing: Draw the curve of colony count change over time at different compound concentrations, and record the results as shown in FIG. 1.

MRSA (ATCC 33591) = assay: Bacterial cell morphology by FESEM; format: cell-based, S. aureus; conditions: 4 hours
Description: Observation of bacterial cell morphology using FESEM:
First, the bacterial suspension was adjusted to OD600=0.5, and then the bacteria were treated with compound i at a final concentration of 1×MIC and 4×MIC at 37° C. for 4 hours, and a control group without compound addition was set up. After treatment, the bacteria were collected by high-speed centrifugation at 6000 rpm for 10 minutes and washed three times with 10 mM PBS buffer to remove residual culture medium and drugs. Subsequently, the bacteria were fixed with 2.5% glutaraldehyde at 4° C. for 12 hours to maintain the integrity of the cell structure, and then washed again with PBS buffer three times to remove excess glutaraldehyde.
Next, the cells were subjected to a series of ethanol dehydration treatments (30%, 50%, 70%, 80%, 90% and 100% ethanol), and the treatment time of each concentration was sufficient to replace the intracellular water. After dehydration, the sample was resuspended in isoamyl acetate for 30 minutes and then centrifuged at 6000 rpm for 10 minutes to remove the supernatant. The sample was then dried and dotted on a stage with conductive glue, gold-plated to enhance the conductivity of the sample, and finally observed using a field emission scanning electron microscope (FESEM) to obtain high-resolution images of bacterial cell morphology and surface morphology. […]

E. coli (ATCC 25922) [2] = assay: Bacterial extracellular conductivity; format: cell-based; conditions: 1×MIC and 2×MIC, vs blank control
From the text: Changes in conductivity can reflect the permeability and integrity of the cell membrane. When the cell membrane is damaged or the permeability increases, the flow of ions inside and outside the cell will increase, resulting in an increase in conductivity. In the fields of biology and cell biology, conductivity measurements are often used to assess changes in cell membrane integrity.
MRSA and E. coli cells in the logarithmic growth phase were first resuspended after high-speed centrifugation and repeated PBS buffer washing and adjusted to the appropriate optical density. Next, different concentrations of compound i (1×MIC and 2×MIC) were added to the cell suspension, and a blank control group was set. All samples were incubated at 37° C. and sampled at set time points (0, 1, 2, 4, 6, and 8 hours). […] This series of operations helps to reveal the specific mechanism of action of compound i on bacterial growth and cell structure.

## C=C[C@]1(C)C[C@@H](OC(=O)CSc2nc3cc[n+](Cc4ccc(C)cc4)cc3[nH]2)[C@]2(C)[C@H](C)CC[C@]3(CCC(=O)[C@H]32)[C@@H](C)[C@@H]1O [Compound i, 5-(4-methylbenzyl)-2-((2-(((3aR,4R,5R,7S,8S,9R,9aS,12R)-8-hydroxy-4,7,9,12-tetramethyl-3-oxo-7-vinyldecahydro-4,9a-propancyclopenta[8]cyclo-5-yl)oxy)-2-oxoethyl)thio)-3H-imidazo[4,5-C]pyridine-5-ium]
E. coli (ATCC 25922) [1]
  bactericidal efficiency (time-kill curve) compared with retapamulin: higher bactericidal efficiency
MRSA (ATCC 33591); 1×MIC
  bacterial cell morphology (FESEM): showed an irregular shape
MRSA (ATCC 33591); 4×MIC
  bacterial cell morphology (FESEM): obvious shrinkage or deformation
E. coli (ATCC 25922) [2]
  extracellular conductivity: increased

Reference: patent US12275734B1, “Pleuromutilin onium salt derivative containing a 3H-imidazo[4,5-c]pyridine side chain, and a preparation method and application thereof” (SHAANXI UNIVERSITY OF SCIENCE AND TECHNOLOGY, priority 2024, dated 2025)
